Assay results reported in PubChem BioAssay AID264 (DTP/NCI, 2004).
Where “and” joins values, the source holds several entries; their conditions need not be identical. Equal entries are not always repeated. Records with an inconclusive call do not appear.

Test system: nude mice, LX-1 lung xenograft intrarenal, tumor weight T/C
Assay: NCI In Vivo Anticancer Drug Screen. Data for tumor model Human Lung LX-1 Xenograft (intrarenal inoculation) in NU/NU Swiss (nude) mice
Details: endpoint: mean tumor weight change, higher = larger tumour
Protocol: The antitumor activity of compounds was measured in mice bearing transplantable tumors. Survival or tumor size were measured and the results are expressed as the measurement made in the treated group (T) divided by the measurement made in the vehicle treated control group (C). The tumor model used in this assay is Human Lung LX-1 Xenograft (intrarenal inoculation) in NU/NU Swiss (nude) mice

[1] = dose: 75.0 mg/kg/injection, schedule: Q04DX003 (sc), vehicle: saline with Tween-80
[2] = dose: 150.0 mg/kg/injection, schedule: Q04DX003 (sc), vehicle: saline with Tween-80
[3] = dose: 300.0 mg/kg/injection, schedule: Q04DX003 (sc), vehicle: saline with Tween-80
[4] = dose: 300.0 mg/kg/injection, schedule: Q04DX003 (sc), vehicle: Klucel (hydroxypropylcellulose) (HPC)
[5] = dose: 600.0 mg/kg/injection, schedule: Q04DX003 (sc), vehicle: Klucel (hydroxypropylcellulose) (HPC)
[6] = dose: 1200.0 mg/kg/injection, schedule: Q04DX003 (sc), vehicle: Klucel (hydroxypropylcellulose) (HPC)
[7] = dose: 600.0 mg/kg/injection, schedule: Q04DX003 (sc), vehicle: saline with Tween-80
[8] = dose: 1200.0 mg/kg/injection, schedule: Q04DX003 (sc), vehicle: saline with Tween-80
[9] = dose: 50.0 mg/kg/injection, schedule: Q01DX010 (sc), vehicle: Klucel (hydroxypropylcellulose) (HPC)
[10] = dose: 200.0 mg/kg/injection, schedule: Q01DX010 (sc), vehicle: Klucel (hydroxypropylcellulose) (HPC)

With CCOC(=O)NC1=C(N2CC2)C(=O)C(NC(=O)OCC)=C(N2CC2)C1=O the T/C (dose: 0.78 mg/kg/injection, schedule: Q01DX010 (sc), vehicle: saline) was 67 % of control, the T/C (dose: 1.56 mg/kg/injection, schedule: Q01DX010 (sc), vehicle: saline) was 74 % of control and the T/C (dose: 1.56 mg/kg/injection, schedule: Q01DX010 (sc), vehicle: suspension in saline) was 56 % of control. The T/C (dose: 3.12 mg/kg/injection, schedule: Q04DX003 (sc), vehicle: suspension in saline) was 77 % of control, the T/C (dose: 3.13 mg/kg/injection, schedule: Q01DX010 (sc), vehicle: saline) was 81 % of control and the T/C (dose: 3.13 mg/kg/injection, schedule: Q01DX010 (sc), vehicle: suspension in saline) was 89 % of control. For the same compound, the T/C (dose: 3.13 mg/kg/injection, schedule: Q04DX003 (ip), vehicle: saline) was 64 % of control, the T/C (dose: 6.25 mg/kg/injection, schedule: Q01DX010 (sc), vehicle: saline) was 35 % of control and the T/C (dose: 6.25 mg/kg/injection, schedule: Q04DX003 (ip), vehicle: saline) was 96 % of control. For the same compound, the T/C (dose: 6.25 mg/kg/injection, schedule: Q04DX003 (sc), vehicle: saline) was 75 % of control, the T/C (dose: 6.25 mg/kg/injection, schedule: Q04DX003 (sc), vehicle: suspension in saline) was 65 % of control and the T/C (dose: 12.5 mg/kg/injection, schedule: Q04DX003 (ip), vehicle: saline) was 34 % of control. For the same compound, the T/C (dose: 12.5 mg/kg/injection, schedule: Q04DX003 (sc), vehicle: saline) was 71 % of control and the T/C (dose: 25.0 mg/kg/injection, schedule: Q04DX003 (ip), vehicle: saline) was 9 % of control.

In the case of COC1=CC(=O)C(OC)=C(OC)C1=O, the T/C (dose: 38.0 mg/kg/injection, schedule: Q04DX003 (sc), vehicle: saline with Tween-80) is reported as 122 % of control, the T/C [1] is reported as 72 % of control and the T/C [2] is reported as 104 % of control. The T/C [3] was 122 % of control.

With COc1cc(OC)c(OC)cc1/C=C\c1ccnc2ccccc12 the T/C [4] was 62 % of control, the T/C [5] was 82 % of control and the T/C [6] was 90 % of control. For the same compound, the T/C (dose: 2400.0 mg/kg/injection, schedule: Q04DX003 (sc), vehicle: Klucel (hydroxypropylcellulose) (HPC)) was 81 % of control.

With NC(=S)N/N=C/c1ccc(OC(=O)COc2ccccc2)cn1 the T/C [3] was 77 % of control, the T/C [7] was 73 % of control and the T/C [8] was 37 % of control.

For O=c1[nH]c(=O)n([C@H]2CCCO2)cc1F, the T/C [9] was 37 % of control, the T/C [10] was 93 % of control and the T/C (dose: 400.0 mg/kg/injection, schedule: Q01DX010 (sc), vehicle: Klucel (hydroxypropylcellulose) (HPC)) was 103 % of control.

In the case of CCCCNC(C)C1(O)Cc2c(O)c3c(c(O)c2C(OC2CC(N)C(O)C(C)O2)C1)C(=O)c1c(OC)cccc1C3=O (centres undefined), the T/C (dose: 300.0 mg/kg/injection, schedule: Q04DX003 (sc), vehicle: water) is reported as 99 % of control and the T/C (dose: 600.0 mg/kg/injection, schedule: Q04DX003 (sc), vehicle: water) is reported as 84 % of control.

CC1OC(=O)C(C(C)C)NC(=O)C(C(C)C)OC(=O)C(C(C)C)NC(=O)C(C)OC(=O)C(C(C)C)NC(=O)C(C(C)C)OC(=O)C(C(C)C)NC(=O)C(C)OC(=O)C(C(C)C)NC(=O)C(C(C)C)OC(=O)C(C(C)C)NC1=O (centres undefined) was tested, and the T/C (dose: 5.0 mg/kg/injection, schedule: Q01DX010 (ip), vehicle: saline with Tween-80) was 44 % of control, the T/C (dose: 5.0 mg/kg/injection, schedule: Q01DX010 (sc), vehicle: saline with Tween-80) was 107 % of control and the T/C (dose: 10.0 mg/kg/injection, schedule: Q01DX010 (ip), vehicle: saline with Tween-80) was 28 % of control. The T/C (dose: 16.66 mg/kg/injection, schedule: Q04DX003 (ip), vehicle: saline with Tween-80) was 56 % of control, the T/C (dose: 16.66 mg/kg/injection, schedule: Q04DX003 (sc), vehicle: saline with Tween-80) was 179 % of control and the T/C (dose: 33.33 mg/kg/injection, schedule: Q04DX003 (sc), vehicle: saline with Tween-80) was 94 % of control. The T/C (dose: 66.65 mg/kg/injection, schedule: Q04DX003 (ip), vehicle: saline with Tween-80) was 37 % of control and the T/C (dose: 66.65 mg/kg/injection, schedule: Q04DX003 (sc), vehicle: saline with Tween-80) was 119 % of control.

CC(=O)OCC1OC([S-])C(OC(C)=O)C(OC(C)=O)C1OC(C)=O.CC[PH+](CC)CC.CC[PH+](CC)CC.[Au].[Au] (centres undefined) was tested, and the T/C (dose: 3.12 mg/kg/injection, schedule: Q04DX003 (sc), vehicle: Klucel (hydroxypropylcellulose) (HPC)) was 110 % of control, the T/C (dose: 6.25 mg/kg/injection, schedule: Q04DX003 (sc), vehicle: Klucel (hydroxypropylcellulose) (HPC)) was 88 % of control and the T/C (dose: 12.5 mg/kg/injection, schedule: Q04DX003 (sc), vehicle: Klucel (hydroxypropylcellulose) (HPC)) was 75 % of control.

C[C@]12CCC(=O)C=C1CC[C@@H]1[C@@H]2[C@@H](O)C[C@@]2(C)[C@H]1CC[C@]2(O)C(=O)CO was tested, and the T/C [4] was 40 % of control.

In the case of COC12C(COC(N)=O)C3=C(C(=O)C(C)=C(N)C3=O)N1CC1C2N1C (centres undefined), the T/C (dose: 8.0 mg/kg/injection, schedule: Q01DX010 (sc), vehicle: saline) is reported as 1 % of control and -17 % of control.

With O=NN(CCCl)C(=O)NCCO the T/C (dose: 3.12 mg/kg/injection, schedule: Q04DX003 (sc), vehicle: water) was 49 % of control and 65 % of control.

For C[C@H](N)C(=O)N[C@@H]1[C@H]2C(=C(O)C[C@@H](O)[C@@H]2O)C(=O)O[C@]1(C)C(Cl)Cl, the T/C (dose: 1.5 mg/kg/injection, schedule: Q04DX003 (sc), vehicle: Klucel (hydroxypropylcellulose) (HPC)) was 108 % of control, the T/C (dose: 3.0 mg/kg/injection, schedule: Q04DX003 (sc), vehicle: Klucel (hydroxypropylcellulose) (HPC)) was 107 % of control and the T/C (dose: 6.0 mg/kg/injection, schedule: Q04DX003 (sc), vehicle: Klucel (hydroxypropylcellulose) (HPC)) was 81 % of control.

In the case of CC(=O)O[C@@H]1[C@@H](O)C2=C3[C@]4(C)[C@@H]1C(C)(C)C(=O)C[C@@H]4[C@]3(O)[C@H](OC(C)=O)[C@@]1(C[C@@H]1C)C2=O, the T/C (dose: 12.5 mg/kg/injection, schedule: Q01DX010 (sc), vehicle: saline with Tween-80) is reported as 104 % of control, the T/C (dose: 25.0 mg/kg/injection, schedule: Q01DX010 (sc), vehicle: saline with Tween-80) is reported as 58 % of control and the T/C (dose: 50.0 mg/kg/injection, schedule: Q01DX010 (sc), vehicle: saline with Tween-80) is reported as 207 % of control.

C[n+]1c(/C=N/NC(N)=S)ccc2ccccc21 was tested, and the T/C [3] was 93 % of control, the T/C [7] was 101 % of control and the T/C [8] was 102 % of control.

In the case of COc1cc2cc(c1Cl)N(C)C(=O)CC(OC(=O)C(C)C)C1(C)OC1C(C)C1CC(O)(NC(=O)O1)C(OC)/C=C/C=C(C)C2 (centres undefined), the T/C (dose: 100.0 micrograms/kg/injection, schedule: Q01DX010 (sc), vehicle: saline + alcohol) is reported as 19 % of control and 39 % of control and the T/C (dose: 200.0 micrograms/kg/injection, schedule: Q01DX010 (sc), vehicle: saline + alcohol) is reported as 44 % of control.

With CNC(=O)c1cccc2c(Nc3ccc(NS(C)(=O)=O)cc3OC)c3cccc(C)c3nc12 the T/C (dose: 50.0 mg/kg/injection, schedule: Q04DX003 (sc), vehicle: water) was 69 % of control.

CN=C(NC#N)NCCSCc1nc[nH]c1C was tested, and the T/C [4] was 81 % of control, the T/C [5] was 66 % of control and the T/C [6] was 73 % of control.

CC(=O)OCc1cc(=O)n(C)c2c3c4c(cc12)c(C)cc(=O)n4CO3 was tested, and the T/C (dose: 25.0 mg/kg/injection, schedule: Q01DX010 (sc), vehicle: Klucel (hydroxypropylcellulose) (HPC)) was 113 % of control, the T/C [9] was 83 % of control and 222 % of control and the T/C [10] was 93 % of control and 105 % of control.

With CC(C)CCCCCCCCCCCCC(=O)NCC(=O)NC1C(C)OC(Nc2ncnc3nc[nH]c23)C(O)C1O (centres undefined) the T/C (dose: 4.0 mg/kg/injection, schedule: Q01DX010 (sc), vehicle: distilled water + Tween-80) was 31 % of control and 33 % of control, the T/C (dose: 8.0 mg/kg/injection, schedule: Q01DX010 (sc), vehicle: distilled water + Tween-80) was 24 % of control and the T/C (dose: 32.0 mg/kg/injection, schedule: Q01DX010 (sc), vehicle: distilled water + Tween-80) was 28 % of control.

CN1CCN(c2ccc3nc(-c4ccc5nc(-c6ccc(O)cc6)[nH]c5c4)[nH]c3c2)CC1 was tested, and the T/C (dose: 200.0 mg/kg/injection, schedule: Q04DX003 (sc), vehicle: saline) was 73 % of control and the T/C (dose: 400.0 mg/kg/injection, schedule: Q04DX003 (sc), vehicle: saline) was 73 % of control.

COc1ccc(S(=O)(=O)N=N/C=C2\C=CC=CN2O)cc1OC was tested, and the T/C [1] was 111 % of control, the T/C [2] was 124 % of control and the T/C [7] was 11 % of control.

In the case of Cc1ccccc1N(CC1CO1)CC1CO1 (centres undefined), the T/C (dose: 50.0 mg/kg/injection, schedule: Q01DX010 (sc), vehicle: suspension in saline) is reported as 33 % of control, the T/C (dose: 100.0 mg/kg/injection, schedule: Q01DX010 (sc), vehicle: suspension in saline) is reported as 22 % of control and the T/C (dose: 200.0 mg/kg/injection, schedule: Q01DX010 (sc), vehicle: suspension in saline) is reported as 104 % of control. For the same compound, the T/C (dose: 400.0 mg/kg/injection, schedule: Q01DX010 (sc), vehicle: suspension in saline) was 59 % of control.
